Assay results from PMC9486805, “Identification of a Phage Display-Derived Peptide Interacting with the N-Terminal Region of Factor VII Activating Protease (FSAP) Enables Characterization of Zymogen Activation” (ACS Chemical Biology, 2022).
“Also recorded” adds a separate entry of the source.

Experiments:
immobilized pro-FSAP = assay: Activation of pro-FSAP captured from plasma on anti-FSAP antibody-coated wells; format: biochemical, human; settings: peptide 0–25 μM in solution, duplicate wells (Fig 5A)
Procedure: Figure 5 Characteristics of pro-FSAP activation in plasma by NNKC9/41: (A) neutravidin-coated wells were used to capture biotinylated NNKC9/41 or scrambled control peptide (0–25 μM). Hirudin plasma (1:10) was incubated in the wells for 1 h at 37 °C to allow for binding and activation of pro-FSAP. In parallel, wells were coated with rabbit polyclonal anti-FSAP antibody (2 μg/mL) and plasma was added to immobilize FSAP in the presence of solution phase NNKC9/41 or its scrambled control (0–25 μM). Fluorogenic substrate turnover (Ac–Ala–Lys–Nle–Arg–AMC) was monitored. (B) Plasma was incubated with NNKC9/41 and Ser–Ser control (0–50 μM each) in the absence of any antibody or in the presence of MA-FSAP-38C7 or MA-FSAP-32F10 (5 μg/mL) and the FSAP activity was monitored. (C) Plasma was incubated with NNKC9/41 (25 μM) in the presence of MA-FSAP-38C7 or MA-FSAP-32F10 (0–10 μg/mL) and the FSAP activity was monitored. For (A)–(C), results are shown as mean + range of duplicate wells.

pro-FSAP in human plasma = target: T1, pro-FSAP in human plasma (Homo sapiens, UniProt Q14520); assay: Immunocapture of pro-FSAP from plasma and conversion of pro-uPA to uPA; format: biochemical; settings: hirudin plasma 1:12, 1 h at 37 °C; NNKC9/41 0–25 μM, histones 0–25 μg/mL; PNAPEP1344; three donors (Fig 4B)
T1 construct: from tissue; host or cells: human hirudin or citrate plasma from healthy donors, diluted 1:12
T1 sequence (Q14520 24-560): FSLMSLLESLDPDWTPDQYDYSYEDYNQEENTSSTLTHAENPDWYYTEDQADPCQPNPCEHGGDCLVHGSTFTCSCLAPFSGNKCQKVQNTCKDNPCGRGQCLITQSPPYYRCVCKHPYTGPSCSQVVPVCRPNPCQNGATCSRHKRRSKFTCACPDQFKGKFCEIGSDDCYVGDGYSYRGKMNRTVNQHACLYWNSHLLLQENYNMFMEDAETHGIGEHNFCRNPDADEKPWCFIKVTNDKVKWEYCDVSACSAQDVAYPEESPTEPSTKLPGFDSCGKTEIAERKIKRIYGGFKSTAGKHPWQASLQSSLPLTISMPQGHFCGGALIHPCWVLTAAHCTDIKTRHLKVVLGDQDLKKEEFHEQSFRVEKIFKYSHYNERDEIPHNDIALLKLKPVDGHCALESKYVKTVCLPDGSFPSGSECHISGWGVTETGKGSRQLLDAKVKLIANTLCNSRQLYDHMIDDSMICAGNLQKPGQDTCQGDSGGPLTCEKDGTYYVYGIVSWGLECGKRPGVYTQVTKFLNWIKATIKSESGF
Procedure: Figure 4 Comparison of different methods to measure pro-FSAP activation in plasma: (A) hirudin plasma (1:12 dilution) was incubated with histones (0–25 μg/mL), NNKC9/41, or its Ser–Ser linear control (0–25 μM) and the fluorogenic substrate turnover (Ac–Ala–Lys–Nle–Arg–AMC) was monitored. (B) From the same experiment as in (A) after 1 h incubation at 37 °C, samples were captured on anti-FSAP coated wells and the conversion of added pro-uPA to active uPA was measured by determining the turnover of the chromogenic substrate PNAPEP1344 (25 μM). (C) From the same experiment as in (A) after 1 h incubation at 37 °C, samples were captured on anti-FSAP coated wells and α2-antiplasmin antibody was used to detect the formation of FSAP−α2-antiplasmin complexes. […] In (F), the samples with MA-FSAP-570 were not analyzed since this antibody would interfere in the sandwich ELISA. […]
(§1) Human citrate plasma (0.38% w/v) or hirudin plasma (25 μg/mL Lepirudin) was obtained from five healthy donors. […] Hydrolysis of the fluorogenic substrates was measured using a Synergy HI plate reader with excitation at 320 nm and emission at 460 nm at 37 °C for 60 min. The maximal velocity was calculated from the linear part of the progress curve. […]

factor XII = assay: Specificity towards pro-enzymes: factor XII; format: biochemical; settings: Factor XII 100 nM; peptide 0-50 μM; CS31 (Fig S7)
Procedure: Fig S7. Specificity of NNKC9/41 towards other pro-enzymes: Zymogens and their respective active enzymes were incubated with NNKC9/41 or Ser-Ser linear peptide (0-50 μM) and the enzyme activity was monitored using respective chromogenic substrates. Activity of Factor XII(100 nM) and Factor XIIa (20 nM) was measured with the substrate CS31 (1000 µM). Pro-thrombin (100 nM) and thrombin (20 nM) […]
(§2) Bend, IN, USA) except plasminogen and FSAP, which were isolated in house; and pro-uPA was from Grünenthal (Stolberg, Germany). All chromogenic substrates were from Hyphen Biomed (Neuville Sur Oise, France). Experiments were carried out in TBS with Tween-20 (0.1 % wt/ vol) BSA (0.3% wt/vol) and CaCl2 (2 mM). Absorbance at 405 nm was measured over time and the enzyme activity is depicted was measured in duplicates (mean + or -range) and similar results were obtained in 3

pro-FSAP in WT/MI plasma = assay: Substrate turnover in WT/MI plasma; format: biochemical, human; settings: WT/MI citrate plasma 1:12; 25 μM (Fig 6A)
Procedure: Figure 6 Pro-FSAP activation and clotting in plasma by NNKC9/41: (A) citrate plasma (1:12 dilution) from donors with WT/WT, WT/MI, and MI/MI genotypes and WT-FSAP-deficient plasma (FSAP-DP) were compared. Substrate turnover was monitored after addition of NNKC9/41 or the Ser–Ser linear peptide (25 μM each). Results are shown as mean + range of duplicate wells. (B) Pooled prothrombin-deficient citrated plasma (1:5 dilution) was recalcified with 10 mM CaCl2 and incubated with NNKC9/41 or scrambled control peptide (0–25 μM each) for 60 min at 37 °C in the presence or absence of the FSAP-inhibitory MA-FSAP-38C7 (5 μg/mL). Initiation of clotting was achieved by adding the tissue factor/phospholipid and prothrombin complex concentrate. Clotting time was measured as diluted prothrombin time (dPT) in seconds. Data are the mean of three independent experiments. The relative dPT in % of the untreated control is presented as mean ± standard error (SE) (*p <0.05, two-way analysis of variance (ANOVA) and Bonferroni post-test).
as §1

pro-urokinase = assay: Specificity towards pro-enzymes: pro-urokinase; format: biochemical; settings: pro-uPA 100 nM; peptide 0-50 μM; PNAPEP 1344 (Fig S7)
Procedure: Fig S7. […]
(§3) µM). Pro-uPA (100 nM) and uPA (20 nM) with PNAPEP 1344 (250 µM). Factor X (50 […]
as §2

uPA = assay: Specificity: uPA; format: biochemical; settings: uPA 20 nM; peptide 0-50 μM; PNAPEP 1344 (Fig S7)
Procedure: Fig S7. […]
as §3, §2

factor X = assay: Specificity towards pro-enzymes: factor X; format: biochemical; settings: Factor X 50 nM; peptide 0-50 μM; S-2765 (Fig S7)
Procedure: Fig S7. […]
as §2

CRGAMWMYKRC [NNKC9/41]
activation of captured pro-FSAP (immobilized pro-FSAP): found to activate pro-FSAP | pro-uPA conversion (pro-FSAP in human plasma): weaker than histones; also recorded: concentration-dependent effect | effect on activity (factor XII): did not influence the activity | substrate turnover (pro-FSAP in WT/MI plasma): low turnover | effect on activity (pro-urokinase): did not influence the activity | effect on activity (uPA): did not influence the activity | effect on activity (factor X): did not influence the activity
